Measured values published in US20250353891A1 (MEDIMMUNE LIMITED, priority 2022, published 2025).
Starred links: 1 amine or outer side, 2 acyl side, 3 side chain; linkers in the order of their positions; H or OH if unused. Non-standard residues stand in square brackets, D forms with d. Residues, ends and D or L forms follow the SMILES beside them. Groups on a side chain read outwards from the residue. *: point of attachment. C20 diacid = O=C(O)CCCCCCCCCCCCCCCCCCC(=O)*; C18 diacid = O=C(O)CCCCCCCCCCCCCCCCC(=O)*; γGlu = O=C(O)[C@H](CCC(=O)[*:2])N[*:1]; αMeF = C[C@](N)(Cc1ccccc1)C(=O)O; PEG4 = NCCOCCOCCOCCOCCC(=O)O; PEG2 = NCCOCCOCCC(=O)O; AEEA = NCCOCCOCC(=O)O; Aib = CC(C)(N)C(=O)O

Legend:
[1] = target: human GLP-1 receptor (hGLP-1R) (Homo sapiens, UniProt P43220); assay: cAMP production (HTRF) in CHO cells expressing hGLP-1R; type: cell-based; parameters: expressed in transfected cells; settings: for EC50: Table 7, peptides modified at position 20, cAMP in CHO hGLP-1R cells, geometric mean, read-out: hGLP-1R EC50; for % Relative Potency Ratio: Table 7, % GLP-1R activity relative to GLP-1 / % GlucR activity relative to glucagon
Sequence of human GLP-1 receptor (hGLP-1R) (P43220 24-463): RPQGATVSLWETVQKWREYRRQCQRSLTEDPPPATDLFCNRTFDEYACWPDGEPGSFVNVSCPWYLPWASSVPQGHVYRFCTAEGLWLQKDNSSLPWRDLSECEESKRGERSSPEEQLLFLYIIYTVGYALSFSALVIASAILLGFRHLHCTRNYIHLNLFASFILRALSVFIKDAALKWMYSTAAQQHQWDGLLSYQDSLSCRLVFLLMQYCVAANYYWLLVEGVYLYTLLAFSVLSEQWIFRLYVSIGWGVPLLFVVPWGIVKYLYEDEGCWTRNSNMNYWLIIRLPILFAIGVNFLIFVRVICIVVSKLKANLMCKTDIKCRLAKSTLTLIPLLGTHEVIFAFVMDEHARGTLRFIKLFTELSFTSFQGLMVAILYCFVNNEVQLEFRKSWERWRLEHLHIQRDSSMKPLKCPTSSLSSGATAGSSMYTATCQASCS
Procedure, shortened: (§1)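 Cells were resuspended in assay buffer at batch-optimized density, typically 1×10^5 cells/mL for hGLP-1R and 2×10^5 cells/mL for hGCGR. After 30 min incubation at room temperature with compound, cAMP was measured by two-step HTRF. EC50 values came from 4-parameter logistic fits of % Delta F.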

[2] = target: human glucagon receptor (hGCGR) (Homo sapiens, UniProt P47871); assay: cAMP production (HTRF) in CHO cells expressing hGCGR; type: cell-based; parameters: expressed in transfected cells; settings: Table 7, peptides modified at position 20; cAMP in CHO hGCGR cells; geometric mean; read-out: hGluc-R EC50
Sequence of human glucagon receptor (hGCGR) (P47871 26-477): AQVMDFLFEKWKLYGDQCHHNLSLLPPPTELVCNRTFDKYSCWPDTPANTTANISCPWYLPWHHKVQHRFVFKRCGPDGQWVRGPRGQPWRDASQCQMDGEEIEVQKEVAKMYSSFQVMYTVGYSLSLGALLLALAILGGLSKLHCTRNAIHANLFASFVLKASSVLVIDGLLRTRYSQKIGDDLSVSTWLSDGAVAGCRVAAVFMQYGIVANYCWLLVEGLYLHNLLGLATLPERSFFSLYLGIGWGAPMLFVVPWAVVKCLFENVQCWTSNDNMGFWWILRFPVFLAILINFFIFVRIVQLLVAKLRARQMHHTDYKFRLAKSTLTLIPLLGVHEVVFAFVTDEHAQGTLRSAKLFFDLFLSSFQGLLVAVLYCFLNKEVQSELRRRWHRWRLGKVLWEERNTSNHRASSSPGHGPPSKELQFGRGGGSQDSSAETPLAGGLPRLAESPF
Procedure, shortened: as §1

EC50 [1]	% Relative Potency Ratio [1]	EC50 [2]	SMILES
0.0191 nM	3.6	0.0348 nM	CC[C@H](C)[C@H](NC(=O)C(C)(C)NC(=O)[C@H](CCC(N)=O)NC(=O)[C@@H](NC(=O)[C@](C)(Cc1ccccc1)NC(=O)[C@H](CC(=O)O)NC(=O)[C@H](CCCCNC(=O)COCCOCCNC(=O)CC[C@H](NC(=O)COCCOCCNC(=O)CCCCCCCCCCCCCCCCC(=O)O)C(=O)O)NC(=O)[C@H](C)NC(=O)[C@H](C)NC(=O)[C@H](CCCNC(=N)N)NC(=O)[C@H](CO)NC(=O)[C@H](CC(=O)O)NC(=O)[C@H](CC(C)C)NC(=O)[C@](C)(Cc1ccccc1)NC(=O)[C@H](CCCCN)NC(=O)[C@H](CO)NC(=O)[C@@H](NC(=O)[C@H](CC(=O)O)NC(=O)[C@H](CO)NC(=O)[C@@H](NC(=O)[C@](C)(Cc1ccccc1)NC(=O)[C@H](CO)NC(=O)CNC(=O)[C@H](Cc1c[nH]cn1)NC(=O)C(C)(C)NC(=O)[C@@H](N)Cc1c[nH]cn1)[C@@H](C)O)C(C)C)C(C)C)C(=O)N[C@@H](C)C(=O)N[C@@H](CC(N)=O)C(=O)N[C@H](C(N)=O)[C@@H](C)O [Peptide 259] (H-H[Aib]HGS[αMeF]TSDVSK[αMeF]LDSRAAK([AEEA-γGlu-AEEA-C18 diacid])D[αMeF]VQ[Aib]IANT-NH2)
0.0331 nM	4.6	0.0769 nM	CC[C@H](C)[C@H](NC(=O)C(C)(C)NC(=O)[C@H](CCC(N)=O)NC(=O)[C@@H](NC(=O)[C@](C)(Cc1ccccc1)NC(=O)[C@H](CC(=O)O)NC(=O)[C@H](CCCCNC(=O)COCCOCCNC(=O)CC[C@H](NC(=O)COCCOCCNC(=O)CC[C@H](NC(=O)CCCCCCCCCCCCCCCCC(=O)O)C(=O)O)C(=O)O)NC(=O)[C@H](C)NC(=O)[C@H](C)NC(=O)[C@H](CCCNC(=N)N)NC(=O)[C@H](CO)NC(=O)[C@H](CC(=O)O)NC(=O)[C@H](CC(C)C)NC(=O)[C@](C)(Cc1ccccc1)NC(=O)[C@H](CCCCN)NC(=O)[C@H](CO)NC(=O)[C@@H](NC(=O)[C@H](CC(=O)O)NC(=O)[C@H](CO)NC(=O)[C@@H](NC(=O)[C@](C)(Cc1ccccc1)NC(=O)[C@H](CO)NC(=O)CNC(=O)[C@H](Cc1c[nH]cn1)NC(=O)C(C)(C)NC(=O)[C@@H](N)Cc1c[nH]cn1)[C@@H](C)O)C(C)C)C(C)C)C(=O)N[C@@H](C)C(=O)N[C@@H](CC(N)=O)C(=O)N[C@H](C(N)=O)[C@@H](C)O [Peptide 260] (H-H[Aib]HGS[αMeF]TSDVSK[αMeF]LDSRAAK([AEEA-γGlu-AEEA-γGlu-C18 diacid])D[αMeF]VQ[Aib]IANT-NH2)
0.0162 nM	3.6	0.0294 nM	CC[C@H](C)[C@H](NC(=O)C(C)(C)NC(=O)[C@H](CCC(N)=O)NC(=O)[C@@H](NC(=O)[C@](C)(Cc1ccccc1)NC(=O)[C@H](CC(=O)O)NC(=O)[C@H](CCCCNC(=O)CCOCCOCCOCCOCCNC(=O)CC[C@H](NC(=O)CCCCCCCCCCCCCCCCC(=O)O)C(=O)O)NC(=O)[C@H](C)NC(=O)[C@H](C)NC(=O)[C@H](CCCNC(=N)N)NC(=O)[C@H](CO)NC(=O)[C@H](CC(=O)O)NC(=O)[C@H](CC(C)C)NC(=O)[C@](C)(Cc1ccccc1)NC(=O)[C@H](CCCCN)NC(=O)[C@H](CO)NC(=O)[C@@H](NC(=O)[C@H](CC(=O)O)NC(=O)[C@H](CO)NC(=O)[C@@H](NC(=O)[C@](C)(Cc1ccccc1)NC(=O)[C@H](CO)NC(=O)CNC(=O)[C@H](Cc1c[nH]cn1)NC(=O)C(C)(C)NC(=O)[C@@H](N)Cc1c[nH]cn1)[C@@H](C)O)C(C)C)C(C)C)C(=O)N[C@@H](C)C(=O)N[C@@H](CC(N)=O)C(=O)N[C@H](C(N)=O)[C@@H](C)O [Peptide 261] (H-H[Aib]HGS[αMeF]TSDVSK[αMeF]LDSRAAK([PEG4-γGlu-C18 diacid])D[αMeF]VQ[Aib]IANT-NH2; N-terminus assumed)
0.013 nM	1.8	0.0117 nM	CC[C@H](C)[C@H](NC(=O)C(C)(C)NC(=O)[C@H](CCC(N)=O)NC(=O)[C@@H](NC(=O)[C@](C)(Cc1ccccc1)NC(=O)[C@H](CC(=O)O)NC(=O)[C@H](CCCCNC(=O)COCCOCCNC(=O)CC[C@H](NC(=O)CCCCCCCCCCCCCCCCC(=O)O)C(=O)O)NC(=O)[C@H](C)NC(=O)[C@H](C)NC(=O)[C@H](CCCNC(=N)N)NC(=O)[C@H](CO)NC(=O)[C@H](CC(=O)O)NC(=O)[C@H](CC(C)C)NC(=O)[C@](C)(Cc1ccccc1)NC(=O)[C@H](CCCCN)NC(=O)[C@H](CO)NC(=O)[C@@H](NC(=O)[C@H](CC(=O)O)NC(=O)[C@H](CO)NC(=O)[C@@H](NC(=O)[C@](C)(Cc1ccccc1)NC(=O)[C@H](CO)NC(=O)CNC(=O)[C@H](Cc1c[nH]cn1)NC(=O)C(C)(C)NC(=O)[C@@H](N)Cc1c[nH]cn1)[C@@H](C)O)C(C)C)C(C)C)C(=O)N[C@@H](C)C(=O)N[C@@H](CC(N)=O)C(=O)N[C@H](C(N)=O)[C@@H](C)O [Peptide 262] (H-H[Aib]HGS[αMeF]TSDVSK[αMeF]LDSRAAK([AEEA-γGlu-C18 diacid])D[αMeF]VQ[Aib]IANT-NH2)
0.0254 nM		0.0646 nM	CC[C@H](C)[C@H](NC(=O)C(C)(C)NC(=O)[C@H](CCC(N)=O)NC(=O)[C@@H](NC(=O)[C@](C)(Cc1ccccc1)NC(=O)[C@H](CC(=O)O)NC(=O)[C@H](CCCCNC(=O)CCOCCOCCOCCOCCNC(=O)CC[C@H](NC(=O)CC[C@H](NC(=O)CCCCCCCCCCCCCCCCC(=O)O)C(=O)O)C(=O)O)NC(=O)[C@H](C)NC(=O)[C@H](C)NC(=O)[C@H](CCCNC(=N)N)NC(=O)[C@H](CO)NC(=O)[C@H](CC(=O)O)NC(=O)[C@H](CC(C)C)NC(=O)[C@](C)(Cc1ccccc1)NC(=O)[C@H](CCCCN)NC(=O)[C@H](CO)NC(=O)[C@@H](NC(=O)[C@H](CC(=O)O)NC(=O)[C@H](CO)NC(=O)[C@@H](NC(=O)[C@](C)(Cc1ccccc1)NC(=O)[C@H](CO)NC(=O)CNC(=O)[C@H](Cc1c[nH]cn1)NC(=O)C(C)(C)NC(=O)[C@@H](N)Cc1c[nH]cn1)[C@@H](C)O)C(C)C)C(C)C)C(=O)N[C@@H](C)C(=O)N[C@@H](CC(N)=O)C(=O)N[C@H](C(N)=O)[C@@H](C)O [Peptide 263] (H-H[Aib]HGS[αMeF]TSDVSK[αMeF]LDSRAAK([PEG4-γGlu-γGlu-C18 diacid])D[αMeF]VQ[Aib]IANT-NH2)
0.0695 nM	8.5	0.297 nM	CC[C@H](C)[C@H](NC(=O)C(C)(C)NC(=O)[C@H](CCC(N)=O)NC(=O)[C@@H](NC(=O)[C@](C)(Cc1ccccc1)NC(=O)[C@H](CC(=O)O)NC(=O)[C@H](CCCCNC(=O)CCOCCOCCNC(=O)CCOCCOCCNC(=O)CC[C@H](NC(=O)CC[C@H](NC(=O)CCCCCCCCCCCCCCCCCCC(=O)O)C(=O)O)C(=O)O)NC(=O)[C@H](C)NC(=O)[C@H](C)NC(=O)[C@H](CCCNC(=N)N)NC(=O)[C@H](CO)NC(=O)[C@H](CC(=O)O)NC(=O)[C@H](CC(C)C)NC(=O)[C@](C)(Cc1ccccc1)NC(=O)[C@H](CCCCN)NC(=O)[C@H](CO)NC(=O)[C@@H](NC(=O)[C@H](CC(=O)O)NC(=O)[C@H](CO)NC(=O)[C@@H](NC(=O)[C@](C)(Cc1ccccc1)NC(=O)[C@H](CO)NC(=O)CNC(=O)[C@H](Cc1c[nH]cn1)NC(=O)C(C)(C)NC(=O)[C@@H](N)Cc1c[nH]cn1)[C@@H](C)O)C(C)C)C(C)C)C(=O)N[C@@H](C)C(=O)N[C@@H](CC(N)=O)C(=O)N[C@H](C(N)=O)[C@@H](C)O [Peptide 264] (H-H[Aib]HGS[αMeF]TSDVSK[αMeF]LDSRAAK([PEG2-PEG2-γGlu-γGlu-C20 diacid])D[αMeF]VQ[Aib]IANT-NH2)
0.0712 nM	3.6	0.131 nM	CC[C@H](C)[C@H](NC(=O)C(C)(C)NC(=O)[C@H](CCC(N)=O)NC(=O)[C@@H](NC(=O)[C@](C)(Cc1ccccc1)NC(=O)[C@H](CC(=O)O)NC(=O)[C@H](CCCCNC(=O)COCCOCCNC(=O)CC[C@H](NC(=O)COCCOCCNC(=O)CCCCCCCCCCCCCCCCCCC(=O)O)C(=O)O)NC(=O)[C@H](C)NC(=O)[C@H](C)NC(=O)[C@H](CCCNC(=N)N)NC(=O)[C@H](CO)NC(=O)[C@H](CC(=O)O)NC(=O)[C@H](CC(C)C)NC(=O)[C@](C)(Cc1ccccc1)NC(=O)[C@H](CCCCN)NC(=O)[C@H](CO)NC(=O)[C@@H](NC(=O)[C@H](CC(=O)O)NC(=O)[C@H](CO)NC(=O)[C@@H](NC(=O)[C@](C)(Cc1ccccc1)NC(=O)[C@H](CO)NC(=O)CNC(=O)[C@H](Cc1c[nH]cn1)NC(=O)C(C)(C)NC(=O)[C@@H](N)Cc1c[nH]cn1)[C@@H](C)O)C(C)C)C(C)C)C(=O)N[C@@H](C)C(=O)N[C@@H](CC(N)=O)C(=O)N[C@H](C(N)=O)[C@@H](C)O [Peptide 265] (H-H[Aib]HGS[αMeF]TSDVSK[αMeF]LDSRAAK([AEEA-γGlu-AEEA-C20 diacid])D[αMeF]VQ[Aib]IANT-NH2)
0.0665 nM	8.7	0.293 nM	CC[C@H](C)[C@H](NC(=O)C(C)(C)NC(=O)[C@H](CCC(N)=O)NC(=O)[C@@H](NC(=O)[C@](C)(Cc1ccccc1)NC(=O)[C@H](CC(=O)O)NC(=O)[C@H](CCCCNC(=O)COCCOCCNC(=O)CC[C@H](NC(=O)COCCOCCNC(=O)CC[C@H](NC(=O)CCCCCCCCCCCCCCCCCCC(=O)O)C(=O)O)C(=O)O)NC(=O)[C@H](C)NC(=O)[C@H](C)NC(=O)[C@H](CCCNC(=N)N)NC(=O)[C@H](CO)NC(=O)[C@H](CC(=O)O)NC(=O)[C@H](CC(C)C)NC(=O)[C@](C)(Cc1ccccc1)NC(=O)[C@H](CCCCN)NC(=O)[C@H](CO)NC(=O)[C@@H](NC(=O)[C@H](CC(=O)O)NC(=O)[C@H](CO)NC(=O)[C@@H](NC(=O)[C@](C)(Cc1ccccc1)NC(=O)[C@H](CO)NC(=O)CNC(=O)[C@H](Cc1c[nH]cn1)NC(=O)C(C)(C)NC(=O)[C@@H](N)Cc1c[nH]cn1)[C@@H](C)O)C(C)C)C(C)C)C(=O)N[C@@H](C)C(=O)N[C@@H](CC(N)=O)C(=O)N[C@H](C(N)=O)[C@@H](C)O [Peptide 266] (H-H[Aib]HGS[αMeF]TSDVSK[αMeF]LDSRAAK([AEEA-γGlu-AEEA-γGlu-C20 diacid])D[αMeF]VQ[Aib]IANT-NH2)
